Data from paper PMC4595804, “A strategy to discover decoy chemokine ligands with an anti-inflammatory activity” (Scientific Reports, 2015).

Assays:
Assay type in all cases: cell-based
[1] = molecular target: T1, CXCL12 (Homo sapiens, UniProt P48061); assay: TRIC-r calcium assay, neutraligand protocol, EGFP-CXCR4+ HEK cells; details: 10 μM compound, 5 nM CXCL12, EGFP-CXCR4+ HEK cells
T1 construct: (His)6; made in house; host or cells: E. coli BL21 (DE3)

[2] = molecular target: T2, CCL22 T56A (Homo sapiens, UniProt O00626, T56A); assay: Calcium responses induced by chemokine mutant, neutraligand protocol; details: 10 μM compound, 5 nM chemokine; remaining response
T2 construct: codes for the mature CCL17 or CCL22 with an N-terminal thioredoxin-hexahistidin (TRX- (His)6) tag; TRX-(His)6 (N, cleaved yes); made in house; host or cells: E. coli BL21 (DE3)
T2 sequence (O00626 25-93 T56A): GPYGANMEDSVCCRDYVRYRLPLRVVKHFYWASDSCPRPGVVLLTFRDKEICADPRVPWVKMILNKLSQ

[3] = molecular target: T3, CXCL10 (Homo sapiens, UniProt P02778); assay: Selectivity, neutraligand protocol, EGFP-CXCR3+ HEK cells; details: 10 μM compound, 5 nM CXCL10, EGFP-CXCR3+ HEK cells
T3 construct: (His)6; made in house; host or cells: E. coli BL21 (DE3)
T3 sequence (P02778 22-98): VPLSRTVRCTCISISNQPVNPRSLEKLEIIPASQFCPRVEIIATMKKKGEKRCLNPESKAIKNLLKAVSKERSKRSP
Procedure: (§1) Figure 6 (a) Selectivity of CCL17 and CCL22 neutraligands towards 10 chemokines according to the “neutraligand protocol”. […] Each column represents the mean (block) ± SD (bars) of n = 3 experiments performed in triplicate. *p < 0.05; **p < 0.01; ***p < 0.005 as compared to chemokine + DMSO. (b) Chemokine neutraligands inhibited CCR4 endocytosis induced by CCL22 or CCL17. EGFP-CCR4^+ HEK cells were incubated for 30 min with DMSO or chemokine (100 nM CCL22 or CCL17) in the presence or absence of test compounds. […] Cell surface EGFP-tagged CCR4 receptors were measured by EGFP antibody labeling and flow cytometry analysis. CCR4 internalization was expressed as a percentage of total receptor surface expression calculated using control cells incubated with DMSO (100%). Each column represents the mean (block) ± SD (bars) of n = 3 experiments performed in triplicate. *p < 0.05; **p < 0.01; ***p < 0.005 as compared to chemokine alone. (c,d) Inhibition of CCL17 and CCL22- induced CCR4^+HUT78 T cell chemotaxis by neutraligands. […] The number of migrating cells induced by a chemokine alone was set at 100% migration. The number of migrating cells in the presence of chemokine and compounds were expressed as the corresponding percentages. Results were analyzed by fitting the experimental curves (% of migrating cells vs log compound concentration) using the Kaleidagraph software program, and the corresponding IC50 values were calculated. Means and SD values of triplicates were plotted.
(§2) Human cDNAs encoding CCR4 and CXCR3 receptors were cloned in pIRES plasmid (Clontech) while cDNAs encoding CCR2, CCR5, CXCR2 and CXCR4 receptors were cloned in pCEP4 vector (Life technologies). […] Stably EGFP-CCR4^+ HEK cells were selected for 5 weeks with geneticin (G-418, 600μg/ml), and resulting cell clones were checked by fluorescence microscopy and FACS analysis. […]
(§3) Dye loaded cells were placed in the FlexStation 3 (Molecular Devices). Calcium mobilization was measured at 401 and 475 nm emission fluorescence after excitation at 355 nm. […] Raw fluorescence data (at 401 and 475 nm) were exported and the ratio 401/475 was calculated. The calcium response values (height of peak response over baseline) were determined. […] The Z’ factor[29] was calculated according to the following equation: Z’ = 1-(3SD+ + 3SD−)/|Ave+ − Ave−|, where SD+ and Ave+ are respectively the standard deviation and the mean value of the positive controls (chemokine + DMSO), while SD− and Ave− are respectively the standard deviation and the mean value of the negative controls (HEPES-BSA (0.1%) mixed with DMSO, or cells mixed with C-021). Hit molecules were confirmed by performing concentration-response curves and their half maximal inhibitory concentration (IC50) values were calculated using the Kaleidagraph software.

[4] = molecular target: T4, CXCL11 (Homo sapiens, UniProt O14625); assay: as above; details: 10 μM compound, 5 nM CXCL11, EGFP-CXCR3+ HEK cells
T4 construct: thioredoxin-hexahistidin (TRX-(His)6) with enterokinase site; made in house; host or cells: E. coli BL21 (DE3)
T4 sequence (O14625 22-94): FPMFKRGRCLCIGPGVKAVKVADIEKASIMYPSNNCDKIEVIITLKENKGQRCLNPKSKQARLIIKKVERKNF
Procedure: as §1, §2, §3

T1 sequence (P48061 22-93): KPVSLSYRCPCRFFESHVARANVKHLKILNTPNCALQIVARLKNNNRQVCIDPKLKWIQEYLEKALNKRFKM

| Compound | effect on calcium responses induced by CXCL12 [1] | calcium response induced by CCL22 T56A preincubated with compound [2] | effect on calcium responses induced by CXCL10 [3] | effect on calcium responses induced by CXCL11 [4] |
| --- | --- | --- | --- | --- |
| CC(C)=CCn1cnc2c1c(=O)n(C)c(=O)n2C [GPN279, 1,3-dimethyl-7-(3-methylbut-2-enyl)-1H-purine-2,6(3H, 7H)-dione] | no effect | neither inhibited WT nor CCL22 mutants | no effect | no effect |
| O=C(OCC(O)CO)c1ccccc1O (centres unmarked) [GPN136, 2,3-dihydroxypropyl 2-hydroxybenzoate] | no effect | 40.0 ± 6.0% | no effect | no effect |
